# Experimental data as given in patent US11603359B2, “Benzothiadiazepine compounds and their use as bile acid modulators” (Albireo AB, priority 2019, dated 2023).
# pIC50: −log10 of the molar value.
# Experiments:
# human LBAT = molecular target: T1, human LBAT (Homo sapiens, UniProt Q14973); test: LBAT (h/m) assay, human LBAT-overexpressing cells, 3H-taurocholic acid uptake; assay type: cell-based; settings: 0.3 μM 3H-taurocholic acid + 7.5 μM cold taurocholic acid, 20 minutes, read-out: hLBAT IC50
# T1 construct: expressed in transfected cells; Geneticin-selected LBAT-overexpressing cells
# T1 sequence (Q14973 1-349): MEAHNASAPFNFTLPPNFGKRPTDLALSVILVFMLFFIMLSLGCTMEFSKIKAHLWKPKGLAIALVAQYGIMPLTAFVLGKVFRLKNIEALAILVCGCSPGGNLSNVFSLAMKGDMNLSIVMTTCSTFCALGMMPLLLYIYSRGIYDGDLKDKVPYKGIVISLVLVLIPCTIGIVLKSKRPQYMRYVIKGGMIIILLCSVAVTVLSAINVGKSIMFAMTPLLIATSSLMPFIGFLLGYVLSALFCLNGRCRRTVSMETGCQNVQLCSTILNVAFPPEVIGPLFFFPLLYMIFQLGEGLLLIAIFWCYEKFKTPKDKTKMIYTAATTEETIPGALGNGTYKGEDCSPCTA
# Description: 20,000 cells (Human or Mouse LBAT-overexpressing cells) were seeded in 96-wells plate (Corning CLS3809) in 100 μL MEM-alpha medium (Gibco 12571-063) supplemented with 10% FBS (Gibco 10438026) containing Geneticin (Gibco 10131-027) (1 mg/mL) and incubated at 37° C. in 5% CO2 for 24 hours. After incubation, media was decanted from the wells and cells were washed two times with 300 μL of basal MEM-alpha medium (FBS-free). After decanting basal MEM-alpha medium each time, plates were tapped against paper towel to ensure maximum removal of residual media.
# For human LBAT, incubation mix was prepared by adding test inhibitor dilutions (3-fold serial dilution in DMSO (Sigma D2650), 10 points) in MEM-alpha (without FBS) containing 0.3 μM 3H-taurocholic acid (ARC ART-1368) and 7.5 μM cold taurocholic acid (Sigma T4009) (maintaining 0.2% final DMSO concentration). For mouse LBAT, incubation mix was prepared by adding test inhibitor dilutions (3-fold serial dilution in DMSO, 10 points) in MEM-alpha (without FBS) containing 0.3 μM 3H-taurocholic acid and 25 μM cold taurocholic acid maintaining 0.2% final DMSO concentration).
# 50 μL of incubation mix containing test inhibitors was then added to the wells (in duplicate) and the plates were incubated for 20 minutes in a CO2 incubator at 37° C. After incubation, the reaction was stopped by keeping the plates on ice water mix for 2-3 minutes and then the incubation mix was aspirated completely from the wells. The wells were washed two times with 250 μL of chilled unlabelled 1 mM taurocholic acid dissolved in HEPES (Gibco 15630080)-buffered (10 mM) HBSS (Gibco 14175079) (pH 7.4). The plates were tapped against a paper towel after every wash to ensure maximum removal of blocking buffer.
# 100 μL of MicroScint-20 (PerkinElmer 6013621) was added to the wells and kept overnight at room temperature before reading the plates in TopCount NXT™ Microplate Scintillation and Luminescence Counter from PerkinElmer under 3H Test protocol (set at 120 seconds reading time per well, with normal plate orientation).
# All test compounds were provided in powder form at room temperature. 10 mM DMSO stocks of the test compounds were prepared, aliquoted and stored at −20° C. From the 10 mM DMSO stock of the compounds, a 3-fold serial dilution in DMSO was prepared to get a total of 10 dilutions of the test compounds. 0.5 μL of this dilution in DMSO was added to 250 μL of FBS-free basal media containing 3H-taurocholic acid and cold taurocholic acid to prepare the incubation mixture.
# [1] = Bioavailability studies in rats; assay type: in vivo; settings: male, Wistar, plasma, rat, 1 mg/kg intravenous vs 10 mg/kg oral
# Description: (§1) Male mice (C57BL/6 or CD1) or Wistar rats of 8-9 weeks old were used. For each test compound, two groups of 3 animals each were used. One group was administered a single intravenous dose of 1 mg/kg (vehicle 100% DMSO) through the tail vein and the other group was administered a single oral dose of 10 mg/kg through gavage needle. The group that was administered an oral dose was fasted overnight. Blood samples were collected after 0.083, 0.25, 0.5, 1, 2, 4, 6, 8 and 24 hours following intravenous administration, and after 0.25, 0.5, 1, 2, 4, 6, 8 and 24 hours following oral administration. Blood samples were taken from saphenous vein. 0.2% EDTA was used as the anticoagulant. The samples were analyzed by a discovery grade bioanalytical method developed for the estimation of test compound in plasma, using an LC-MS/MS system.
# [2] = Bioavailability studies in mice; assay type: in vivo, mice (C57BL/6 or CD1); settings: male, mouse, plasma, 1 mg/kg intravenous vs 10 mg/kg oral
# Description: as §1
Structure (SMILES),pIC50 (human LBAT),other results
"CCCCC1(CCCC)CN(c2ccccc2)c2cc(SC)c(OCC(O)C(=O)O)cc2S(=O)(=O)N1 (racemic) [Example 5, 3-((3,3-dibutyl-7-(methylthio)-1,1-dioxido-5-phenyl-2,3,4,5-tetrahydro-1,2,5-benzothiadiazepin-8-yl)oxy)-2-hydroxypropanoic acid]",5.73,
"CCCCC1(CC)CN(c2ccccc2)c2cc(N(C)C)c(OCCC(=O)O)cc2S(=O)(=O)N1 (racemic) [Example 11, 3-((3-Butyl-7-(dimethylamino)-3-ethyl-1,1-dioxido-5-phenyl-2,3,4,5-tetrahydro-1,2,5-benzothiadiazepin-8-yl)oxy)propanoic acid]",5.93,
"CCCCC1(CC)CN(c2ccccc2)c2cc(SC)c(OCCC(=O)O)cc2S(=O)(=O)N1 (single isomer, unassigned) [Example 4, 3-((3-butyl-3-ethyl-7-(methylthio)-1,1-dioxido-5-phenyl-2,3,4,5-tetrahydro-1,2,5-benzothiadiazepin-8-yl)oxy)propanoic acid]",5.44,bioavailability [1]: 90%; bioavailability ([2]; CD1 mice): 45%
"CCCCC1(CCCC)CN(c2ccccc2)c2cc(SC)c(OCC(O)C(=O)O)cc2S(=O)(=O)N1 (single isomer, unassigned) [Example 7, 3-((3,3-dibutyl-7-(methylthio)-1,1-dioxido-5-phenyl-2,3,4,5-tetrahydro-1,2,5-benzothiadiazepin-8-yl)oxy)-2-hydroxypropanoic acid]",5.65,
"CCCCC1(CC)CN(c2ccccc2)c2cc(N(C)C)c(OCCC(=O)O)cc2S(=O)(=O)N1 (single isomer, unassigned) [Example 12, 3-((3-butyl-7-(dimethylamino)-3-ethyl-1,1-dioxido-5-phenyl-2,3,4,5-tetrahydro-1,2,5-benzothiadiazepin-8-yl)oxy)propanoic acid]",5.65,
"CCCCC1(CCCC)CN(c2ccccc2)c2cc(SC)c(OCCC(=O)O)cc2S(=O)(=O)N1 [Example 1, 3-((3,3-Dibutyl-7-(methylthio)-1,1-dioxido-5-phenyl-2,3,4,5-tetrahydro-1,2,5-benzothiadiazepin-8-yl)oxy)propanoic acid]",5.54,bioavailability ([1]; Na^+ salt): 98%; bioavailability ([2]; C57BL/6 mice): 34%; bioavailability ([2]; CD1 mice): 59%
"CCCCC1(CCCC)CN(c2ccccc2)c2cc(SC)c(OC(C)CC(=O)O)cc2S(=O)(=O)N1 (centres unmarked) [Example 8, 3-((3,3-Dibutyl-7-(methylthio)-1,1-dioxido-5-phenyl-2,3,4,5-tetrahydro-1,2,5-benzothiadiazepin-8-yl)oxy)butanoic acid]",5.58,
"CCCCC1(CCCC)CN(c2ccccc2)c2cc(Cl)c(OCCC(=O)O)cc2S(=O)(=O)N1 [Example 9, 3-((3,3-dibutyl-7-chloro-1,1-dioxido-5-phenyl-2,3,4,5-tetrahydro-1,2,5-benzothiadiazepin-8-yl)oxy)propanoic acid]",5.79,
"CCCCC1(CCCC)CN(c2ccc(O)cc2)c2cc(SC)c(OCCC(=O)O)cc2S(=O)(=O)N1 [Example 10, 3-((3,3-dibutyl-5-(4-hydroxyphenyl)-7-(methylthio)-1,1-dioxido-2,3,4,5-tetrahydro-1,2,5-benzothiadiazepin-8-yl)oxy)propanoic acid]",5.14,
